4 compounds from patent publication US6472348B1, “Pyridone derivatives and herbicides” (Kumiai Chemical Industry Co., Ltd., priority 1996, dated 2002) can be followed below.

Series [1] deals with Diaitaria ciliaris (Di). The series is described as follows: Test Example 3: herbicidal effects by upland field foliage treatment. Also on record: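 grade of growth control; 5 = at least 90%; 4 = 70 to 90%; 3 = 50 to 70%; 2 = 30 to 50%; 1 = 10 to 30%; 0 = under 10%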. Particulars: 100 g of the active ingredient per 10 ares, evaluated on the 14th day after treatment. Format: in vivo. The procedure, abridged: (§1)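 Weeds were sown in sand-filled pots (surface area: 120 cm^2), covered with soil and grown in a greenhouse for 2 weeks before foliar treatment. Plants then stayed in the greenhouse, and herbicidal effect was scored against graded standards on the 14th day after treatment.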

For series [2], the system named is barnyardgrass (Ec). The description is as above. Particulars: 100 g of the active ingredient per 10 ares, evaluated on the 14th day after treatment. Also on record: scale not given here. It counts as in vivo. The procedure, abridged: as §1
The subject of series [3] is common lambsquarters (Ch). The description is as above. Format: in vivo. Also on record: scale not given here. The conditions noted are these: 100 g of the active ingredient per 10 ares, evaluated on the 14th day after treatment. Summed up:
as §1

Series [4] deals with pale smartweed (Po). The description is as above. Format: in vivo. Also on record: scale not given here. The conditions noted are these: 100 g of the active ingredient per 10 ares, evaluated on the 14th day after treatment. Summed up:
as §1

For series [5], the system named is rice flatsedge (Ci). The description is as above. Format: in vivo. Also on record: scale not given here. The conditions noted are these: 100 g of the active ingredient per 10 ares, evaluated on the 14th day after treatment. The procedure, abridged:
as §1

Series [6] deals with slender amaranth (Am). The series is described as above. It counts as in vivo. The conditions noted are these: 100 g of the active ingredient per 10 ares, evaluated on the 14th day after treatment. Set-up: scale not given here. The procedure, abridged:
as §1

In series [7] the test system is wheat (Tr). The series is described as follows: Test Example 9: crop plant selectivity by upland field foliage treatment (wheat), phytotoxicity.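 Also: grade of crop injury; 5 = at least 90%; 4 = 70 to 90%; 3 = 50 to 70%; 2 = 30 to 50%; 1 = 10 to 30%; 0 = under 10%.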 The conditions noted are these: dose 1.6 g ai/10a, 14th day after treatment. The procedure, abridged:
(§2)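 Read-out: weed control and wheat injury, rated by a defined scoring standard 14 days after foliar application.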

Series [8] relates to China jute (Ab). The series is described as follows: Test Example 9: crop plant selectivity by upland field foliage treatment (wheat), herbicidal effects. Set-up: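 grade of growth control; 5 = at least 90%; 4 = 70 to 90%; 3 = 50 to 70%; 2 = 30 to 50%; 1 = 10 to 30%; 0 = under 10%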. The conditions noted are these: dose 1.6 g ai/10a, 14th day after treatment. Format: in vivo. Summed up: as §2
Series [9] has as its system common lambsquarters (Ch). The description is as above. Format: in vivo. Set-up: scale not given here. The conditions noted are these: dose 1.6 g ai/10a, 14th day after treatment. The procedure, abridged:
as §2

The test system of series [10] is pale smartweed (Po). The description is as above. It counts as in vivo. Also on record: scale not given here. Particulars: dose 1.6 g ai/10a, 14th day after treatment. The procedure, abridged: as §2
The test system of series [11] is slender amaranth (Am). Described as above. Format: in vivo. Also on record: scale not given here. Particulars: dose 1.6 g ai/10a, 14th day after treatment. The procedure, abridged:
as §2

In series [12] the test system is corn (Ze). The series is described as follows: Test Example 11: crop plant selectivity by upland field foliage treatment (corn), phytotoxicity. The conditions noted are these: upland field foliage treatment, dose 1.6 g ai/10a, 14th day after treatment. The procedure: (§3) (Test on Crop Plant Selectivity by Upland Field Foliage Treatment)
(§4) In a plastic pot (surface area: 600 cm^2) filled with sand, corn (Ze), pale smartweed (Po), slender amaranth (Am), common lambsquarters (Ch) and China jute (Ab) were sown and cultured in a green house for 2 weeks. […] The plants were then cultured in a green house, and the evaluation of the herbicidal effects and phytotoxicity was conducted on the 14th day after the treatment in accordance with the standards as identified in Table 47.

Series [13] concerns China jute (Ab). The series is described as follows: Test Example 11: crop plant selectivity by upland field foliage treatment (corn), herbicidal effects. The conditions noted are these: upland field foliage treatment (corn test), dose 1.6 g ai/10a, 14th day after treatment. Set-up: scale not given here. Format: in vivo. How it is done: as §3, §4
The test system of series [14] is common lambsquarters (Ch). The description is as above. Set-up: scale not given here. Particulars: upland field foliage treatment (corn test), dose 1.6 g ai/10a, 14th day after treatment. Format: in vivo. How it is done:
as §3, §4

Series [15] relates to pale smartweed (Po). Described as above. Also on record: scale not given here. Particulars: upland field foliage treatment (corn test), dose 1.6 g ai/10a, 14th day after treatment. It counts as in vivo. The procedure: as §3, §4
Series [16] relates to slender amaranth (Am). The description is as above. It counts as in vivo. Set-up: scale not given here. Particulars: upland field foliage treatment (corn test), dose 1.6 g ai/10a, 14th day after treatment. How it is done:
as §3, §4

In series [17] the test system is barnyardgrass (Ec). In words: Test Example 1: herbicidal effects by paddy field soil treatment.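 Also: grade of growth control; 5 = at least 90%; 4 = 70 to 90%; 3 = 50 to 70%; 2 = 30 to 50%; 1 = 10 to 30%; 0 = under 10%.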 Format: in vivo. The conditions noted are these: 100 g of the active ingredient per 10 ares, 21st day after the application, index 0-5 of Table 47. The procedure, abridged: (§5)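 Scoring of herbicidal effect came 21 days after application of 100 g active ingredient per 10 ares to flooded (3 cm) paddy-soil pots sown with barnyardgrass, monochoria and bulrush, kept in a greenhouse.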

Series [18] concerns bulrush (Sc). The description is as above. Format: in vivo. Particulars: 100 g of the active ingredient per 10 ares, 21st day after the application, index 0-5 of Table 47. The procedure, abridged:
as §5

Series [19] has as its system monochoria (Mo). The description is as above. It counts as in vivo. Particulars: 100 g of the active ingredient per 10 ares, 21st day after the application, index 0-5 of Table 47. Summed up:
as §5

Series [20] concerns Digitaria ciliaris (Di). In words: Test Example 2: herbicidal effects by upland field soil treatment. It counts as in vivo. Particulars: 100 g of the active ingredient per 10 ares, 21st day after the application, index 0-5 of Table 47. An excerpt: (§6) (Test on Herbicidal Effects by Upland Field Soil Treatment)
Series [21] concerns barnyardgrass (Ec). The series is described as above. Format: in vivo. The conditions noted are these: 100 g of the active ingredient per 10 ares, 21st day after the application, index 0-5 of Table 47.
Description: as §6

Series [22] concerns common lambsquarters (Ch). The description is as above. Format: in vivo. The conditions noted are these: 100 g of the active ingredient per 10 ares, 21st day after the application, index 0-5 of Table 47.
Description: as §6

The subject of series [23] is pale smartweed (Po). The series is described as above. Format: in vivo. The conditions noted are these: 100 g of the active ingredient per 10 ares, 21st day after the application, index 0-5 of Table 47.
Description: as §6

For series [24], the system named is rice flatsedge (Ci). The series is described as above. Format: in vivo. Particulars: 100 g of the active ingredient per 10 ares, 21st day after the application, index 0-5 of Table 47.
Description: as §6

The subject of series [25] is slender amaranth (Am). The series is described as above. It counts as in vivo. The conditions noted are these: 100 g of the active ingredient per 10 ares, 21st day after the application, index 0-5 of Table 47.
Description: as §6
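For Herbicidal effects Mo in this document: grade of growth control; 5 = at least 90%; 4 = 70 to 90%; 3 = 50 to 70%; 2 = 30 to 50%; 1 = 10 to 30%; 0 = under 10%.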
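For Herbicidal effects Sc in this document: grade of growth control; 5 = at least 90%; 4 = 70 to 90%; 3 = 50 to 70%; 2 = 30 to 50%; 1 = 10 to 30%; 0 = under 10%.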

With `CCOC(=O)C(CC)Sc1cc(-c2ccc(C(F)(F)F)n(C)c2=O)c(Cl)cc1Cl` (racemic) [1-125], the “Herbicidal effects Di” value in [1] amounted to 5. Further, the “Herbicidal effects Ec” value in [2] was determined as 5. Also, the “Herbicidal effects Ch” value in series [3], in series [9] and in [14] was 5 throughout. Also, the “Herbicidal effects Po” value in series [4], in series [10] and in series [15] was 5 throughout. Further, the “Herbicidal effects Ci” value in [5] amounted to 5. The “Herbicidal effects Am” value in series [6], in series [11] and in series [16] was 5 in each case. Besides, the “Phytotoxicity Tr” value in series [7] amounted to 2. For the same compound, the “Herbicidal effects Ab” value in [8] and in series [13] was 5 throughout. Besides, the “Phytotoxicity Ze” value in series [12] stood at 2.

On to `COCOc1cc(-c2ccc(C(F)(F)F)n(C)c2=O)c(Cl)cc1Cl` [1-38], for which the “Herbicidal effects Ec” value in series [17], in series [21] and in [2] was 5 throughout. Further, the “Herbicidal effects Sc” value in [18] worked out at 5. Besides, the “Herbicidal effects Mo” value in series [19] was found to be 5. Further, the “Herbicidal effects Di” value in series [20] and in series [1] was 5 in each case. Also, the “Herbicidal effects Ch” value in series [22], in series [3], in series [9] and in series [14] was 5 in each case. The “Herbicidal effects Po” value in series [23], in series [4], in series [10] and in [15] was 5 each time. For the same compound, the “Herbicidal effects Ci” value in series [24] and in series [5] was 5 in each case. In addition, the “Herbicidal effects Am” value in [25], in series [6], in [11] and in series [16] was 5 in each case. For the same compound, the “Phytotoxicity Tr” value in [7] came to 2. In addition, the “Herbicidal effects Ab” value in series [8] and in [13] was 5 each time. Also, the “Phytotoxicity Ze” value in series [12] was 2.

With `C#CCNc1cc(-c2ccc(C(F)(F)F)n(C)c2=O)c(F)cc1Cl` [1-62], the “Herbicidal effects Ec” value in series [17], in [21] and in [2] was 5 in each case. The “Herbicidal effects Sc” value in [18] came to 5. Besides, the “Herbicidal effects Mo” value in [19] is recorded as 5. Besides, the “Herbicidal effects Di” value in [20] and in series [1] was 5 each time. The “Herbicidal effects Ch” value in series [22], in [3], in series [9] and in series [14] was 5 throughout. Besides, the “Herbicidal effects Po” value in [23], in [4], in series [10] and in [15] was 5 each time. The “Herbicidal effects Ci” value in series [24] and in [5] was 5 each time. The “Herbicidal effects Am” value in series [25], in series [6], in [11] and in series [16] was 5 throughout. Further, the “Phytotoxicity Tr” value in series [7] was 2. In addition, the “Herbicidal effects Ab” value in series [8] and in series [13] was 5 throughout. Besides, the “Phytotoxicity Ze” value in [12] was determined as 2.

Turning to `C#CCOc1cc(-c2ccc(C(F)(F)F)n(C)c2=O)ccc1Cl` [1-106], the “Herbicidal effects Ec” value in [17], in series [21] and in series [2] was 5 in each case. Also, the “Herbicidal effects Sc” value in series [18] was found to be 5. Besides, in series [19], the “Herbicidal effects Mo” value is recorded as 5. In addition, the “Herbicidal effects Di” value in series [20] and in series [1] was 5 each time. Further, the “Herbicidal effects Ch” value in series [22], in series [3], in series [9] and in [14] was 5 each time. In addition, the “Herbicidal effects Po” value in [23], in series [4], in series [10] and in series [15] was 5 in each case. Moreover, the “Herbicidal effects Ci” value in series [24] and in series [5] was 5 throughout. In addition, the “Herbicidal effects Am” value in [25], in [6], in series [11] and in [16] was 5 each time. The “Phytotoxicity Tr” value in series [7] turned out to be 2. The “Herbicidal effects Ab” value in series [8] and in series [13] was 5 each time. For the same compound, the “Phytotoxicity Ze” value in series [12] is reported as 2.
